Tests used:
LRRK2 [1] = test: LRRK2 levels in mouse striatal tissue after intracranial AICAr via osmotic pumps, Western blot; type: in vivo
Protocol: Saline injections were performed as controls.
(§1) Stereotaxic intracranial injection. Three days before survival surgery, osmotic pumps (ALZET, 1004) were filled with saline, 1 mg/ml or 30 mg/ml AICAr in saline, assembled with brain infusion kits (ALZET, Brain Infusion Kit 2), and incubated in saline at 37° C. 3-month-old mice were anesthetized by isoflurane gas supplemented with 0.5 L/min oxygen. A ˜1.5 cm incision was made midline on the scalp. For mouse striatum injection, one hole was drilled at the following coordinates: anterioposterior=+0.5 mm from bregma; lateral=−2.0 mm from bregma; dorsoventral=−3.5 mm. For mouse substantia nigra pars compacta (SNpc) injection, one hole was drilled at the following coordinates: anterioposterior=−3.2 mm from bregma; lateral=−1.2 mm from bregma; dorsoventral=−4.2 mm. 1 ul LPS (5 ug) or PBS was injected at a rate of 0.2 ul/min using a Hamilton syringe with a 26-gauge blunt needle. After injection, the needle was in place for 5 minutes to minimize backflow. A subcutaneous pocket was made on the animal's back to hold the osmotic pump. The 28-gauge needle from infusion cannulae connected to the osmotic pump with a vinyl catheter tube was inserted into the same hole and then the cannulae was secured to the skull with Loctite 454 (ALZET). The wound was closed with monofilament suture. […]

GBA mRNA = GBA mRNA levels by real-time PCR in SH-SY5Y cells; type: cell-based, human; conditions: 2 mM, 24 hours
Protocol: (§2) Real-Time PCR (qPCR). SH-SY5Y WT or AUF1-KO cells were treated with or without 2 mM AICAr for 24 hours, and total RNA was extracted from 3×10^5 cells of each treatment using TRIzol™ Reagent (Invitrogen) as per the manufacturer's introductions. Real-Time PCR (qPCR) assay was performed using GoTaq® 2-Step RT-PCR System (Promega) as per the manufacturer's introductions. Briefly, total cDNA was reversely transcribed from RNA pools (1.5 μg RNA in a 10 μl reaction mixture) using random primers. The qPCR reaction was run in CFX96 qPCR detection system (Bio-Rad) with 3 μl cDNA (1:20 dilution) in a 10 μl reaction mixture (Table 3), and set at 95° C. for 2 minutes followed by 40 amplification cycles of 95° C. for 15 seconds, 60° C. for 1 min with a melting curve, 95° C. for 15 seconds, 60° C. for 1 min, a ramp from 60° C. to 95° C. at an 1% rate, and 95° C. for 15 seconds. Melt curves were monitored to assess qPCR amplicons, and critical threshold (Ct) values were collected with an enclosed software. Relative gene expression was analyzed by normalization against Ct values of f-ACTIN (housekeeping gene) and then determined by comparison with expression levels of control sample using the relative expression index (2-ΔΔCt) method.

DCP2 = DCP2 expression levels in SH-SY5Y cells, Western blot; type: cell-based, human; conditions: 1 mM, 48 hours
Protocol: FIGS. 6A-6E depict that the decapping enzyme complex DCP1/2 is involved in LRRK2 mRNA decay. FIGS. 6A and 6B depict the DCP1A and DCP2 expression levels upon AICAr treatment. SH-SY5Y cells were treated with or without 1 mM AICAr for 48 hours. DCP1A and DCP2 expression levels were analyzed by Western blot. Images were quantified by ImageJ software. Data are mean±SEM, n=3 independent experiments. **p<0.01 by Student's t tests. FIGS. 6C and 6D depict the LRRK2 expression levels upon DCP1A or DCP2 overexpression. SH-SY5Y cells were transduced with lentiviruses carrying Flag-DCP1A or Flag-DCP2 for 48 hours. LRRK2 expression levels were analyzed by Western blot. Images were quantified by ImageJ software. Data are mean±SEM, n=3 independent experiments. *p<0.05 by Student's t tests. FIG. 6E depict LRRK2 mRNA decapping by DCP1A and DCP2. Recombinant DCP1A and DCP2 proteins were purified from HEK 293T cells and incubated with [α-32P]cap-labeled LRRK2 RNA. LRRK2 mRNA decapping was analyzed by one-dimensional thin layer chromatography.

LRRK2 mRNA = LRRK2 mRNA levels by real-time PCR in SH-SY5Y cells; type: cell-based, human; conditions: 24 hours
Protocol: as §2

[2] = system: DA neurons in substantia nigra pars compacta; test: LPS-induced DA neurodegeneration in mice, TH-positive neurons in SNpc; type: in vivo, mouse; conditions: 21 days
Protocol: as §1, with “needle.” for “needle. After injection, the needle was in place for 5 minutes to minimize backflow. A subcutaneous pocket was made on the animal's back to hold the osmotic pump. The 28-gauge needle from infusion cannulae connected to the osmotic pump with a vinyl catheter tube was inserted into the same hole and then the cannulae was secured to the skull with Loctite 454 (ALZET). The wound was closed with monofilament suture.”
Immunohistochemistry. […] After antigen retrieval with 10 mM sodium citrate (pH 6.0) and 0.05% Tween-20 at 37° C. for 30 minutes, brain sections were washed in PBS for three times, permeabilized with 0.3% Triton X-100 in PBS, blocked with 10% goat serum in PBS, incubated with anti-tyrosine hydroxylase (TH) antibody overnight at 4° C., and then detected with Biotin-SP goat anti-rabbit IgG antibody at room temperature for 2 hours. […]
Stereological cell counting. […] Total cells were counted from 8 serial sections per animal.

LRRK2 [3] = test: Endogenous LRRK2 levels in SH-SY5Y cells, Western blot; type: cell-based, human

NC(=O)c1ncn([C@@H]2O[C@H](CO)[C@@H](O)[C@H]2O)c1N [AICAr, 5-aminoimidazole-4-carboxamide riboside]
LRRK2 levels in striatal tissues (LRRK2 [1]; WT mice, LPS model, AICAr 2.4 μg/day/animal into striatum, 21 days, Western blot): significant decrease
LRRK2 levels in striatal tissue near the injection sites (LRRK2 [1]; male and female mice, striatum, osmotic minipumps, 72 ug/animal/day, 1 day after injection): dramatically decreased
GBA mRNA levels (GBA mRNA): no changes
endogenous levels of DCP2 (DCP2): significantly increased
LRRK2 mRNA level in AUF1-KO cells (LRRK2 mRNA; SH-SY5Y AUF1-KO cells): minimal effect
LRRK2 mRNA levels (LRRK2 mRNA; SH-SY5Y WT, 2 mM, real-time PCR): significantly decreased
LPS-induced neurodegeneration ([2]; LRRK2 KO mice, AICAr 2.4 μg/day/animal into SNpc): did not significantly rescue
LPS-induced DA neurodegeneration ([2]; WT mice, AICAr 2.4 μg/day/animal into SNpc by osmotic pumps): significantly reduced
LRRK2 level, time and dose course (LRRK2 [3]; 1 mM, 24h-48h treatment): suppressed LRRK2 level dramatically
LRRK2 protein levels in AUF1-KO cells (LRRK2 [3]; SH-SY5Y AUF1-KO cells, 1 mM, 48 hours): largely attenuated effects
AICAr effects on LRRK2 in AUF1 KO cells with stable AUF1-GFP expression (LRRK2 [3]; SH-SY5Y AUF1 KO, AUF1-GFP expressed back, 1 mM, 48 hours): significantly rescued AICAr effects
effects on LRRK2 protein levels in WT versus AMPK KO cell line (LRRK2 [3]; SH-SY5Y WT and AMPK KO, 1 mM, 48 hours): similar
endogenous LRRK2 levels (LRRK2 [3]; SH-SY5Y cells, 1 mM, 48 hours): decreased
LRRK2 protein levels despite MG132 or CQ (LRRK2 [3]; SH-SY5Y, 1 mM AICAr with 0.35 μM MG132 or 5 μM CQ, 48 hours): still largely reduced

Reference: patent US20240075050A1, “Methods and Compositions for Treating Leucine Rich Repeat Kinase 2 (LRRK2)-Associated Disorder or Condition” (University of Connecticut, priority 2022, published 2024)
